Experimental data reported in patent US11707445B2, “Composition for blocking angiogenesis” (Indiana University Research and Technology Corporation, priority 2015, dated 2023).

Assays:
[1] = system: new vessel growth induced by bFGF; conditions: chick chorioallantoic membrane; cited from earlier work
[2] = system: choroidal neovascularization; conditions: mouse, in vivo; cited from earlier work
retina [3] = conditions: 10 μM into the vitreous of normal adult mice; cited from earlier work
[4] = system: retinal neovascularization; conditions: in vivo; cited from earlier work
[5] = system: pre-existing retinal vasculature; assay: Staining of pre-existing retinal vasculature (isolectin B4 retina flatmounts); format: in vivo, C57BL/6J mice; conditions: 14 days after 100 μM intravitreal injection, vs vehicle control
neural retina function = assay: Retinal electrophysiology (ERG) after intravitreal injection; format: in vivo, C57BL/6J mice; conditions: 14 days after 100 μM SH-11037 injections, relative to control eyes
Experimental: (§1) All mouse experiments followed the guidelines of the Association for Research in Vision and Ophthalmology Statement for the Use of Animals in Ophthalmic and Visual Research and were approved by the Indiana University School of Medicine Institutional Animal Care and Use Committee. Wild-type female C57BL/6J mice, 6-8 weeks of age, were purchased from the Jackson Laboratory (Bar Harbor, Me.). Intraperitoneal injections of 17.5 mg/kg ketamine hydrochloride and 2.5 mg/kg xylazine mixture were used for anesthesia.
Injections were given under anesthesia in a 0.5 μL volume using a 33-gauge needle. The needle was kept in place for 1 minute to prevent the reflux of solution when the needle was removed. […]
Electroretinograms (ERG) were obtained from animals 14 days post intravitreal injection of 100 μM SH-11037, 0.2 ng mouse anti-VEGF neutralizing antibody (R&D Systems, Minneapolis, Minn., USA)+0.3 μM SH-11037, or vehicle control and performed as described in Cai et al., EMBO Mol Med, 2012 4(9):980-91. Briefly, scotopic rod recordings were performed on overnight dark-adapted mice, with 10 increasing light intensities of white light and responses were recorded with a visual electrodiagnostic system (UTAS-E 2000; LKC Technologies, Gaithersburg, Md.). […] Ten responses were recorded and averaged at each light intensity. […]

[6] = system: human retinal endothelial cells (HRECs); conditions: cited from earlier work
retina [7] = assay: In vivo toxicity of intravitreally injected SH-11037 (histology, immunofluorescence); set-up: species or system C57BL/6J mice
Experimental: as §1
(§2) Injections were given under anesthesia in a 0.5 μL volume using a 33-gauge needle. The needle was kept in place for 1 minute to prevent the reflux of solution when the needle was removed. SH-11037 was dissolved in DMSO then diluted in PBS to a final concentration of 0.5% DMSO. Eyes were numbed with tetracaine solution before the injection, and triple antibiotic ointment was used immediately after the injection to prevent infection. A masked researcher undertook imaging and analysis to avoid bias.
Toxicity of intravitreally injected SH-11037 was initially assessed by histology and immunofluorescence. The presence of acute ocular toxicity was investigated by injecting SH-11037 at different concentrations (0.1, 1, 10, and 100 μM), while long-term effects were tested by injecting 10 μM SH-11037. Mice were sacrificed 3 and 14 days post injections, respectively. Eyes were enucleated and fixed in 4% PFA overnight, and then the eyes were paraffin embedded and sectioned at 5 μm thickness by the Indiana University School of Medicine Histology Core. Mayer's hematoxylin and eosin (H&E) staining was performed, and retinal morphology was quantified by calculating the ratio of A (the distance from the ganglion cell layer to the outer edge of the inner nuclear layer) to B (the distance from the ganglion cell layer to the outer edge of the outer nuclear layer).
For immunofluorescence, sections were deparaffinised with xylenes and ethanol series and boiled in citrate buffer for 5 minutes. […]

CNV lesions = assay: Laser-induced choroidal neovascularization (L-CNV) model; format: in vivo, C57BL/6J mice; conditions: for reduction in CNV lesion volume (Z-stack images of agglutinin-stained choroidal flatmounts): day 14, vs vehicle control; for reduction of CNV lesion volume: day 14, vs control eyes, P<0.01
Experimental: as §1, §2
Laser photocoagulation was performed as described in Sulaiman et al., J Ocul Pharmacol Ther, 2015 and Poor et al., Invest Opthalmol Vis Sci, 2014 55(10): 6525-34. Briefly, eyes were dilated using 1% tropicamide, then underwent laser treatment using 50 μm spot size, 50 ms duration, and 250 mW pulses of an ophthalmic argon green laser, wavelength 532 nm, coupled to a slit lamp. A coverslip was used to allow viewing of the posterior pole of the eye. Each eye received 3 laser burns centered around the optic nerve at 12, 3, and 9 o'clock positions. The appearance of a bubble at the site of laser application was used to identify laser-induced damage of Bruch's membrane. Lesions in which bubbles were not observed were excluded from analysis. The effect of SH-11037 on the L-CNV model using final estimated vitreal concentrations of 0.1, 0.3, 1, or 10 μM SH-11037 was tested. Anti-mouse VEGF164 neutralizing antibody (R&D Systems, Minneapolis, Minn.) was tested at 0.2, 1, and 5 ng/eye. Vehicle (PBS+0.5% DMSO) was used as a negative control. All injections were given a single time, immediately after laser treatment. In testing the effects of SH-11037 on existing L-CNV lesions, vehicle, anti-VEGF164, and SH-11037 (10 μM) injections were given a single time, 5 days post laser.
Optical coherence tomography (OCT) was performed at the indicated times using the Micron III intraocular imaging system (Phoenix Research Labs, Pleasanton, Calif.). Before the procedure, eyes were dilated with 1% tropicamide solution (Alcon, Fort Worth, Tex.) and lubricated with hypromellose ophthalmic demulcent solution (Gonak) (Akorn, Lake Forest, Ill.). Mice were then placed on a custom heated stage that moves freely to position the mouse eye for imaging. Several horizontal and vertical images were taken per lesion to allow calculation of CNV lesion volume. Three-dimensional quantification of CNV lesion volumes was performed using an ellipsoid quantification method as described in Sulaiman et al., J Ocul Pharmacol Ther, 2015, 31(8):447-54. FA was performed 14 days post laser by intraperitoneal injections of 50 μL of 25% fluorescein sodium (Fisher Scientific, Pittsburgh, Pa.). Fundus images were taken using the Micron III system and Streampix software.
Choroidal flatmount preparation, staining, and imaging were done as described in Sulaiman et al., J Ocul Pharmacol Ther, 2015, 31(8):447-54. ImageJ software was used to analyze Z-stack images; the summation of the whole stained area in each section, multiplied by the distance between sections (3 μm) was used as an index for the CNV lesion volume. The volumes of the 3 lesions in each eye were averaged and considered as an n=1 for statistical analysis.

mouse choroidal tissues = assay: Choroidal sprouting assay (ex vivo); format: cell-based, C57Bl/6J mice
Experimental: Sprouting of choroidal layers was tested as previously described in Shao et a., PLoS One, 2013 8(7): e69552. Briefly, 6-8 week old C57Bl/6J mice eyes were enucleated immediately after euthanasia. Peripheral parts of the choroid/sclera layer were separated and cut into pieces. Choroid fragments were then placed on growth factor-reduced Matrigel™ (30 μL/well; BD Biosciences, San Jose, Calif.) in 24-well plates. The plates were then incubated at 37° C. for about 10 minutes to allow the Matrigel to solidify. Endothelial Growth Medium (EGM-2) was prepared by mixing the contents of an EGM-2 “Bullet Kit” (Cat no. CC-4176) with Endothelial Basal Medium (EBM) (Lonza, Walkersville, Md.). Penicillin-streptomycin and 2.5 mg/mL Plasmocin were added to the final medium and used for this assay. Medium (500 μL) was added to each well of the plate and incubated at 37° C. with 5% CO2 for 72 hours before any treatments were added. Medium was changed after 48 hours. SH-11037 was synthesized as taught in WO2014/182695 (incorporated by reference to the extent it is consistent herewith) and dissolved in DMSO and then tested at 0.03, 0.3, and 1 μM concentrations for 48 hours. The final concentration of DMSO in each well was 0.2%. Trypan blue 0.4% solution (Fisher Scientific, Pittsburgh, Pa., USA) was used to assess cell viability. Images were taken using an EVOS-fl digital microscope (AMG, Mill Creek, Wash., USA) and data were analyzed as the sprouting distance in four different directions using ImageJ software v. 1.48V.

In the case of `COc1ccc(CC2COc3cc(O)c(OC)c(O)c3C2=O)cc1O` (centres unmarked) [cremastranone, 5,7-dihydroxy-3-(3-hydroxy-4-methoxybenzyl)-6-methoxychroman-4-one], the “blocking new vessel growth induced by bFGF” value [1] is given as “as effective as retinoic acid”, the “pathogenic neovascularization in laser photocoagulation CNV model” value [2] is given as “showed efficacy” and the “apoptosis of retinal cells” value (retina [3]) is given as “nor did it induce apoptosis”. The “cytotoxic or inflammatory effects on the retina” value (retina [3]) was “no cytotoxic or inflammatory effects” and the “pathogenic retinal neovascularization in OIR model” value [4] was “showed efficacy”.

For `COc1ccc(CC2COc3cc(OC)c(OC)c(OC)c3C2=O)cc1OC(=O)[C@H](Cc1ccccc1)NC(=O)OC(C)(C)C` (some centres unmarked) [SH-11037], the “changes in pre-existing retinal vessels” value [5] is given as “No changes”, the “ERG scotopic a- and b-waves, and photopic b-waves” value (neural retina function) is given as “not significantly different” and the “induction of apoptosis in HRECs” value [6] is given as “without inducing apoptosis”. For the same molecule, the HREC migration ([6]; concentration-dependent) was “inhibited”, the HREC proliferation ([6]; concentration-dependent) was “inhibited” and the HREC tube formation ([6]; concentration-dependent) was “inhibited”. The “retinal thickness (A/B ratio) morphological changes” value (retina [7]; intravitreal SH-11037, 3 and 14 days post injections, vs vehicle-treated and uninjected eyes) was “absence of morphological changes”, the “GFAP, cleaved caspase 3, TUNEL staining and MCP1 (retinal injury, apoptosis, inflammation)” value (retina [7]; intravitreal SH-11037, 3 and 14 days, vs vehicle-treated controls) was “Neither shorter-nor longer-term SH-11037 treated retina showed any significant increases” and the “histological changes in H&E stained retinal sections” value (retina [7]; intravitreal SH-11037 up to 100 μM final concentration, 3 and 14 days post injection, vs vehicle and no injection control eyes) was “no histological changes”. The “reduction in CNV lesion volume (Z-stack images of agglutinin-stained choroidal flatmounts)” value (CNV lesions; 0.1 μM intravitreal) was “no reduction”, the “reduction in CNV lesion volume (Z-stack images of agglutinin-stained choroidal flatmounts)” value (CNV lesions; 0.3 μM intravitreal) was “no reduction” and the “reduction of CNV lesion volume” value (CNV lesions; 1 μM intravitreal) was “about 42%”. For the same molecule, the “vascular volumes of pre-existing CNV lesions relative to vehicle” value (CNV lesions; 10 μM intravitreal single injection 5 days post laser, quantified 14 days post laser) was “significantly suppressed”, the “reduction of CNV lesion volume” value (CNV lesions; 10 μM intravitreal) was about 55% and the “leakiness of CNV lesions by fluorescein angiography” value (CNV lesions; 14 days post laser, relative to vehicle treatment) was “reduced leakiness”. For the same molecule, the “CNV vascular volumes at day 14 versus 5 days control” value (CNV lesions; injection 5 days post laser (10 μM SH-11037; 5 ng anti-VEGF164)) was “no significant difference”, the “CNV lesion volumes by OCT, ellipsoid volume quantification” value (CNV lesions; intravitreal 0.1, 0.3, 1, 10 μM immediately after laser, 7 days post-laser, vs vehicle, dose-dependent) was “significantly lower” and the “ability of choroidal tissues to form sprouts (sprouting distance)” value (mouse choroidal tissues; 0.03, 0.3, 1 μM, 48 hours, concentration-dependent, vs vehicle treated controls) was “significantly inhibited”. For the same molecule, the “cell viability of choroidal sprouts by Trypan blue staining” value (mouse choroidal tissues; 48 hours, 1 μM SH-11037 vs DMSO controls) was “absence of significant cell death”, the “potent inhibitory concentration in choroidal sprouting” value (mouse choroidal tissues; ex vivo choroid microvascular tissue) was 0.03 µM and the “pathogenic retinal neovascularization in OIR model” value [4] was “significantly suppressed”.
